Laboratory results published in patent publication US11197862B2, “Methods of preventing toxicity of platinum drugs” (XOMICS BIOPHARMA, INC., priority 2015, dated 2021).
Entries after “also recorded” stand apart in the source; their conditions may differ.

Assays:
[1] = tested on: Balb/c mice exposed to chronic treatment with Oxaliplatin; assay: Caudal nerve conduction study in chronic oxaliplatin neuropathy model; format: in vivo, mouse; conditions: for caudal nerve action potential amplitude / caudal nerve conduction velocity: OXA 3.5 mg/kg iv, 8 cycles ± BFMD 30 mg/kg ip + 15 mg/kg iv
Description: The development of peripheral neuropathy after chronic administration of drugs was assessed by evaluating the nerve conduction velocity (NCV) along caudal and digital nerve using an electromyography apparatus (Myto2 ABN Neuro, Firenze, Italy). Caudal NCV was determined by placing a couple of recording needle electrodes at the base of the tail and a couple of stimulating needle electrodes 3.5 cm distally to the recording points. Similarly, the digital NCV was determined by placing the recording electrodes close to the ankle bone and the stimulating electrodes close to the fourth toe near the digital nerve. The intensity, duration and frequency of stimulation were set up in order to obtain optimal results. All the neurophysiological determinations were performed under standard conditions in a temperature-controlled room (22+/−2° C.) and the animal under isoflurane anesthesia along the whole procedure with continuous monitoring of vital signs.

[2] = tested on: Balb/c mice exposed to chronic treatment with Oxaliplatin; assay: Morphometry and histopathology of DRG neurons in chronic oxaliplatin neuropathy model; format: in vivo, mouse; conditions: for area of DRG neuron cell bodies and nucleoli (morphometry): OXA 3.5 mg/kg iv twice a week for 4 weeks (8 cycles) ± BFMD 30 mg/kg ip + 15 mg/kg iv
Excerpt: The investigator was blind to the nerve and DRG conditions for these analyses. Three animals from each group were sacrificed four days after the last oxaliplatin dose. The left sciatic nerves and the L4-L5 DRGs were harvested and processed following previously reported protocols, resin embedded and sectioned for light and electron microscope analysis. For the light microscopy analysis, 1 μm semithin sections were stained with toluidine blue and examined using a Nikon Eclipse E200 light microscope (Nikon, Firenze, Italy). For the electron microscopy analysis, ultrathin sections (80 nm) counterstained with uranyl acetate and lead citrate, were examined with a Philips CM 10 transmission electron microscope (Philips, Eindhoven, Netherlands).
The investigator was blind to the experimental conditions of the tissue for these experiments. One micron thick semithin sections stained with toluidine blue were used for morphometric examination of the DRGs from control (n=3) and oxaliplatin-treated mice (n=3). (Renn et al. Molecular Pain 2011, 7:29). Only the cells where the nucleolus was included in the section plane of 50 μm-spaced out sections were considered to avoid the overlapping of the same cell bodies and they were analyzed with computer-assisted image analysis (ImageJ, NIH) to measure the soma and nucleolus size of at least 300 DRG neurons per mouse.

[3] = tested on: cells co-expressing OCT2 and MATE1; assay: Intracellular oxaliplatin content in cells co-expressing OCT2 and MATE1; format: cell-based; conditions: oxaliplatin 100 μM in 4% BSA HBSS, 90 min
Excerpt: In most naturally occurring cells, uptake transporters co-exist with efflux transporters. It is the interplay between the uptake and efflux transporters that determines the net intracellular accumulation of a substrate. One example is in the proximal tubule epithelial cells in the kidney, where the basolaterally expressed transporters, mainly OCT2, work in concert with the apically expressed MATE1 and MATE2K [5]. […] Cells with single expression of OCT2 or GFP mock were also used as a control.

[4] = Plasma levels of buflomedil and oxaliplatin in the chronic model; format: in vivo, mouse; conditions: 15 minutes after the 8th cycle
Description: At baseline (before drug treatment) and at the end of treatment, caudal nerve conduction study (NCS), behavioral tests (Dynamic and Cold Plate), histopathology study were performed. Serum samples were collected at the end of treatment.

[5] = tested on: Balb/c mice exposed to acute treatment with Oxaliplatin; assay: Dynamic test (mechanical pain threshold) after a single oxaliplatin administration; format: in vivo, mouse; conditions: 24 hours after single OXA 3.5 mg/kg iv, DTG 4 mg/kg ip 1 hour before, CPC 4 mg/kg iv co-administered
Description: OXA vehicle, OXA, CPC, DTG, DTG+OXA and CPC+OXA were administered once time. In the group co-administered with OXA and DTG. DTG was injected intraperitoneally 1 hour before the administration of OXA. In the group co-administered with OXA and CPC, CPC was co-administered with OXA intravenously. Mechanical allodynia and cold sensory threshold (dynamic test and cold plate test) were performed 24 and 48 hours after the treatment, respectively, using the methods described in EXAMPLE 15 Plasma Sample Collection

[6] = 14-week toxicity study in monkey, females, PMDA 2012, cited from earlier work

SMILES | caudal nerve action potential amplitude ([1]; listed as BFMD) | caudal nerve conduction velocity ([1]; listed as BFMD) | caudal nerve action potential amplitude ([1]; listed as buflomedil) | caudal nerve conduction velocity ([1]; listed as buflomedil) | nerve injury assessed by caudal NCV ([1]; buflomedil 80 mg/kg po 2 hours before OXA, 8 cycles, n=3/group) | area of DRG neuron cell bodies and nucleoli (morphometry) ([2]; listed as BFMD) | area of DRG neuron cell bodies and nucleoli (morphometry) ([2]; listed as buflomedil) | DRG histopathology (light and electron microscopy) ([2]; OXA 3.5 mg/kg iv, 8 cycles ± BFMD 30 mg/kg ip + 15 mg/kg iv) | cellular accumulation of oxaliplatin in cells co-expressing OCT2 and MATE1 [3] | pharmacokinetic interaction between BFMD and OXA (plasma levels) [4] | plasma level at the end of the study ([4]; BFMD 30 mg/kg ip + 15 mg/kg iv) | Mechanical Pain Threshold (MPT), mechanical hypersensitivity [5] | Mechanical Pain Threshold (MPT), mechanical hypersensitivity ([5]; listed as DTG) | mean plasma Cmax at the NOAEL dose [6] | Cmax ([6]; read-out: mean plasma Cmax at the NOAEL dose)
COc1cc(OC)c(C(=O)CCCN2CCCC2)c(OC)c1 [Buflomedil, 4-pyrrolidin-1-yl-1-(2,4,6-trimethoxyphenyl)butan-1-one] | no statistically significant difference among CTRL. BFMD and OXA+BFMD groups | small but statistically significant increase when compared to OXA alone | effective on reducing peripheral neurotoxicity | effective on reducing peripheral neuropathy | effective on reducing nerve injury; also recorded: showed protective effects against OXAIPN | nearly completely prevented OXA's induced DRG neuronal injury; also recorded: no difference from the CTRL group | effective on preventing dorsal root ganglion (DRG) nerve cell injury | look clearly similar to the control | reduced cellular accumulation of oxaliplatin | No pharmacokinetic interaction was observed | > 1720 ng/mL |  |  |  | 
C[C@@H]1CCO[C@H]2Cn3cc(C(=O)NCc4ccc(F)cc4F)c(=O)c(O)c3C(=O)N12 [Dolutegravir] |  |  |  |  |  |  |  |  |  |  |  | effective on reducing mechanical hypersensitivity | nearly completely alleviated mechanical hypersensitivity | 23500 ng/mL | 54.8 µM
